{"source": "ChEMBL document CHEMBL1201862", "about": "“PubChem BioAssay data set” (2004)", "key": {"[1]": {"assay": "Trypanosoma cruzi growth suppression in host cells – NIH3T3 host cells, beta-gal luminescence, confirmation (AID 2044);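 further: intracellular parasites grown in NIH/3T3 mouse fibroblasts as host cells; luminescent beta-galactosidase reporter signal from transgenic T. cruzi replicating inside host cells; inhibitors lower the luminescence signal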", "assay_type": "functional, cell-based"}, "Streptokinase A": {"biological_target": "T1, Streptokinase A (Streptococcus pyogenes serotype M1, UniProt P10520)", "T1 sequence (P10520 whole entry)": "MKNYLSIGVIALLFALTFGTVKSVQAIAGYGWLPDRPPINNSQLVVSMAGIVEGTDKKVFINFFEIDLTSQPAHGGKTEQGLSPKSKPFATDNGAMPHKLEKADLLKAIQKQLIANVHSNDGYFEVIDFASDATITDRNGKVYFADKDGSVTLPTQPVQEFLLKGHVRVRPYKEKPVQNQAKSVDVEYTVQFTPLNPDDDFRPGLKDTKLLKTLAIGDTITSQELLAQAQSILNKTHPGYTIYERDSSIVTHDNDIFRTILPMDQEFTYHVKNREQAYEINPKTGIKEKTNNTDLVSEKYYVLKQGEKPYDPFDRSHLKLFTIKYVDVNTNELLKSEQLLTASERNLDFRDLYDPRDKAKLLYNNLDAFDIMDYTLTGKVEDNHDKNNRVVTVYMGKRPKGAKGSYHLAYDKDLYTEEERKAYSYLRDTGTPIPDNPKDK", "assay": "viability-normalized secreted streptokinase activity reduction – plasminogen activation absorbance, OD405, dose response (AID 1914)", "assay_type": "functional, Streptococcus pyogenes M1 GAS"}, "[2]": {"biological_target": "Photoreceptor-specific nuclear receptor (Homo sapiens, UniProt Q9Y5X4)", "sequence (Q9Y5X4 whole entry)": "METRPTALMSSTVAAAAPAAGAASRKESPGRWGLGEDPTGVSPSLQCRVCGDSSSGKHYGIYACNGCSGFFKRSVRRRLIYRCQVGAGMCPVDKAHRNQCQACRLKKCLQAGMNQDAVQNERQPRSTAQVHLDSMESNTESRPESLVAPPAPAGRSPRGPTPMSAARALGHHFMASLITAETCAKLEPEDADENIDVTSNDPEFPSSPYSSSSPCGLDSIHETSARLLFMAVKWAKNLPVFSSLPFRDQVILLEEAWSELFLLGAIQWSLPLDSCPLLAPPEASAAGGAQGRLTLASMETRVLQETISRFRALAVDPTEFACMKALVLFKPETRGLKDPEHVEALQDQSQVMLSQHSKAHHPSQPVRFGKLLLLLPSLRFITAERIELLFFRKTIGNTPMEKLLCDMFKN", "assay_type": "functional, cell-based"}, "[3]": {"system": "Streptococcus sp. 'group A'", "assay": "Streptococcus pyogenes SK(-)GAS viability under kanamycin – luminescence, BacTiterGlo, confirmation, counter-screen for streptokinase expression inhibitor project, dose response (AID 1900)", "assay_type": "functional, organism-based"}, "[4]": {"assay": "NIH3T3 cell viability loss – ATP luminescence, mouse fibroblasts, counter-screen, dose response (AID 2010);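 further: cells exposed to compound for about 90 hours before reading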", "assay_type": "functional, cell-based"}, "Streptococcus": {"system": "Streptococcus", "assay": "GAS UMAA2166 growth inhibition – luminescence, BacTiterGlo, counter-screen for streptokinase expression inhibitor project, dose response (AID 1915);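 further: potency for reduction of bacterial viability or growth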", "assay_type": "functional, organism-based"}, "[5]": {"assay": "cytotoxicity in HEK293 background cells – cell-based, dry powder, set 2, counter-screen for EBV LMP1 inhibitor project, dose response (AID 624374)", "assay_type": "functional"}, "[6]": {"biological_target": "T2, Methionyl-tRNA synthetase, putative (Trypanosoma brucei brucei, UniProt Q38C91)", "T2 sequence (Q38C91 whole entry)": "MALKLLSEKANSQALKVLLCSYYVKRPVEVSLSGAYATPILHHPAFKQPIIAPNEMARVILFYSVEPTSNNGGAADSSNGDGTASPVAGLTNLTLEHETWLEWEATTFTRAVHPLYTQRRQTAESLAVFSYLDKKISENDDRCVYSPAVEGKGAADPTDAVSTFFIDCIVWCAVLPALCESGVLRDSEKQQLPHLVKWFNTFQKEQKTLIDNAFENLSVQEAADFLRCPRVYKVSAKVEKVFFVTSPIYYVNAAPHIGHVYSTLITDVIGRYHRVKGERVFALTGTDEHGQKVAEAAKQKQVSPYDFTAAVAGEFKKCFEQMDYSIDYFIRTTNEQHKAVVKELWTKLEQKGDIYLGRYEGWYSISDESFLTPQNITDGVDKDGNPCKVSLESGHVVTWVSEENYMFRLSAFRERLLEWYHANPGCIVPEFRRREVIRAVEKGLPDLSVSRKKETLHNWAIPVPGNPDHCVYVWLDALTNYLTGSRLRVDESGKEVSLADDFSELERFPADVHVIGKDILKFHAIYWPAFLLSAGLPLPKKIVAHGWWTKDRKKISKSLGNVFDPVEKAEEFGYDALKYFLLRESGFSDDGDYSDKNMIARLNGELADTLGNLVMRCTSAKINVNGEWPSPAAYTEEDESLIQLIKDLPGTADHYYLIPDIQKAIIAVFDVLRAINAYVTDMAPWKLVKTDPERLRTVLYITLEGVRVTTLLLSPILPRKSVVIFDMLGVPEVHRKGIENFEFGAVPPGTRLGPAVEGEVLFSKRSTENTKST", "assay_type": "functional, Trypanosoma brucei brucei strain 927/4 GUTat10.1"}, "[7]": {"assay": "Counterscreen for inhibitors of Trypanosoma brucei methionyl tRNA synthetase (MetRS): Luminescence-based cell-based high throughput dose response assay to identify compounds that are cytotoxic to Jurkat human T lymphocyte cells.", "assay_type": "functional"}, "HeLa": {"system": "HeLa", "assay": "ATP-based viability loss in HeLa cells – cell-based, CellTiter-Glo luminescence, cherry-pick samples, cytotoxicity control for MITF activator project, dose response (AID 540259)", "assay_type": "functional", "conditions": "Homo sapiens"}, "Coagulation factor XII": {"biological_target": "T3, Coagulation factor XII (Homo sapiens, UniProt P00748)", "T3 sequence (P00748 whole entry)": "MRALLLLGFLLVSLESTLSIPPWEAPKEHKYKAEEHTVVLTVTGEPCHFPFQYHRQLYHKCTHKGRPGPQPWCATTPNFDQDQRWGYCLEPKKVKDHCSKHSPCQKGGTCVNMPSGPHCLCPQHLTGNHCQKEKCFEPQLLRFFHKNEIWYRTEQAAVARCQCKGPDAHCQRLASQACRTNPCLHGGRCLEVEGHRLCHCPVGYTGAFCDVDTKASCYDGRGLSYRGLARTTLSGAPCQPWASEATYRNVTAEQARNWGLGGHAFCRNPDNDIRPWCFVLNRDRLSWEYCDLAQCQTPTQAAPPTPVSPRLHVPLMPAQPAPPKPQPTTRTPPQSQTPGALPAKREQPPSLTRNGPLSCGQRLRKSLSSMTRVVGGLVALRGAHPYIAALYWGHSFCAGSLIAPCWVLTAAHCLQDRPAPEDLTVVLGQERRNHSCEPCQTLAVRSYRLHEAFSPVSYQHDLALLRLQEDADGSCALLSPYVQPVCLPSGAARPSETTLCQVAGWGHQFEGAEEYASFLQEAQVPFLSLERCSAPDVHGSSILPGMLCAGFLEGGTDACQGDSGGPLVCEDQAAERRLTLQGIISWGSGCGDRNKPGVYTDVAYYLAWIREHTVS", "assay_type": "functional"}, "[8]": {"biological_target": "T2, Methionyl-tRNA synthetase, putative", "assay_type": "functional, Trypanosoma brucei brucei strain 927/4 GUTat10.1", "remark": "listed apart in the source"}, "Vero": {"system": "Vero", "assay": "viability loss in Vero cells – cell-based, plate reader, cherry-pick samples, cytotoxicity control, dose response (AID 687020)", "assay_type": "functional", "conditions": "Chlorocebus sabaeus"}, "[9]": {"assay": "HIV-1 AD8 envelope cell-cell fusion blockers – cherry-pick, dose response (AID 652062);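 further: potency is for inhibitors of fusion seen as a drop in luminescence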", "assay_type": "functional, cell-based"}, "[10]": {"assay": "blockers of HIV-1 envelope-mediated cell-cell fusion – cherry-pick, dose response (AID 652057)", "assay_type": "functional, cell-based"}, "[11]": {"assay": "viability loss in CEM21 cells – cell-based, CellTiter-Glo luminescence, cherry-picked, cytotoxicity control for viral fusion inhibitor project, dose response (AID 652042);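 further: potency for signal decrease meaning cytotoxicity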", "assay_type": "functional"}, "[12]": {"assay": "off-target signal loss in HeLa-CEM21 co-culture – HeLa F-luc CTL cells, cherry-picked, counter-screen for HIV-1 Env fusion inhibitor project, dose response (AID 652040);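 further: potency for signal decrease marking cytotoxic or nonspecific inhibition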", "assay_type": "functional, cell-based"}, "[13]": {"assay": "antiviral protection against BTV-induced cell death – arbovirus, BSR cells, confirmation (AID 1250);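 further: protection from viral cytopathic effect measured as cell viability by ATP luminescence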", "assay_type": "functional"}, "HEK293": {"system": "HEK293", "assay": "EBV LMP1 TES2 canonical NF-kB signalling blockers – cell-based, HEK293, luciferase, cherry-pick, dose response (AID 588343)", "assay_type": "functional", "conditions": "Homo sapiens"}, "Interleukin-8": {"biological_target": "Interleukin-8 (Homo sapiens, UniProt P10145)", "sequence (P10145 whole entry)": "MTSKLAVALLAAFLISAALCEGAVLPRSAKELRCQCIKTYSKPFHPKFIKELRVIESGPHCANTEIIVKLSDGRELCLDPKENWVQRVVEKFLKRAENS", "assay": "Dose Response confirmation of uHTS small molecule hits for cystic fibrosis induced NFkb Inhibitors in a PAF-induced IL8 counterscreen.", "assay_type": "functional", "conditions": "read-out: IC50_Mean"}, "[14]": {"assay": "blockers of HIV-1 ZM109 envelope-driven cell-cell fusion – HeLa effector, CEM target cells, luciferase, cherry-pick, dose response (AID 652058)", "assay_type": "functional, cell-based"}, "[15]": {"biological_target": "V-type proton ATPase subunit c' (Saccharomyces cerevisiae S288c, UniProt P32842)", "sequence (P32842 whole entry)": "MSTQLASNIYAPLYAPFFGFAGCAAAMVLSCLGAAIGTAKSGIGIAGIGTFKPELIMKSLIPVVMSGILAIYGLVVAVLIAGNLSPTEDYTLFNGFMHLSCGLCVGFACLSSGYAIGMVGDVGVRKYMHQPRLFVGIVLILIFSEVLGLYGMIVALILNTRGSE", "assay": "Dose Response of Small Molecules that Regulate V-ATPase Proton Transport in Yeast using pHLuorin, Cherry Pick 2.", "assay_type": "functional", "conditions": "read-out: EC50_MICROM"}}, "note": "Calls of active or inactive are those of the source."}
{"smiles": "CCc1nnc(NC(=O)c2ccc(S(=O)(=O)N3CCCc4ccccc43)cc2)o1", "values": [{"measurement": "EC50", "setting": "[1]", "value": "2.19 µM (active)"}, {"measurement": "EC50", "setting": "Streptokinase A", "value": "> 150 µM (not active)"}, {"measurement": "IC50", "setting": "[2]", "value": "4.33 µM (active)"}, {"measurement": "EC50", "setting": "[3]", "value": "1.21 µM (active)"}, {"measurement": "EC50", "setting": "[4]", "value": "5.54 µM (active)"}, {"measurement": "EC50", "setting": "Streptococcus", "value": "13.3 µM (active)"}]}
{"smiles": "Cc1noc(C)c1S(=O)(=O)Nc1ccc2c(c1)C(=O)N([C@@H](C)CO)C[C@H](C)[C@H](CN(C)Cc1ccc(C(F)(F)F)cc1)OCCCC[C@H](C)O2", "values": [{"measurement": "AbsAC35", "setting": "[5]", "value": 149.08, "unit": "µM"}]}
{"smiles": "O=C(Cn1c(/C=C/c2ccccc2)nc2ccccc21)Nc1ccc(F)cc1", "values": [{"measurement": "IC50", "setting": "[6]", "value": "12.2 µM (inactive)"}, {"measurement": "IC50", "setting": "[7]", "value": "83.3 µM (inactive)"}, {"measurement": "AC50", "setting": "HeLa", "value": "301 µM (active)"}, {"measurement": "IC50", "setting": "Coagulation factor XII", "value": "> 50 µM (inactive)"}, {"measurement": "IC50", "setting": "[8]", "value": "8.74 µM (active)"}]}
{"smiles": "COc1ccc(CC(=O)NCC2CCCN(Cc3ccc(OC(F)(F)F)cc3)C2)cc1", "note": "(configuration not stated)", "values": [{"measurement": "AC50", "setting": "Vero", "value": "17.1 µM (active)"}]}
{"smiles": "Clc1ccccc1C1=Nn2c(nnc2-c2ccncc2)SC1", "values": [{"measurement": "AC50", "setting": "[9]", "value": "1.83 µM (active)"}, {"measurement": "AC50", "setting": "[10]", "value": "3.15 µM (active)"}, {"measurement": "AC50", "setting": "[11]", "value": "63.6 µM (active)"}, {"measurement": "AC50", "setting": "[12]", "value": "1.96 µM (active)"}, {"measurement": "IC50", "setting": "[13]", "value": "22.6 µM (active)"}, {"measurement": "AC50", "setting": "HEK293", "value": "14.2 µM (active)"}, {"measurement": "IC50", "setting": "Interleukin-8", "value": "8.72 µM (active)"}, {"measurement": "AC50", "setting": "[14]", "value": "1.45 µM (active)"}]}
{"smiles": "O=C1C=CC(=Nc2ccc3c(c2)Cc2cc(F)ccc2-3)O1", "values": [{"measurement": "EC50", "setting": "[15]", "value": "7.26 µM (active)"}]}
